# Measured values reported in patent publication US11053204B2, “Pyrimidinyloxy benzene derivatives as herbicides” (FMC Corporation, priority 2015, dated 2021).
# Legend:
# Assay type in all cases: in vivo
# [1] = system: barnyardgrass (Echinochloa crus-galli); assay: Test A postemergence, visual injury rating; conditions: 0 is no effect, 100 is complete control
# Method in brief: (§1)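 Injury scores run from 0, no effect, to 100, complete control, judged by eye against untreated plants roughly 10 days after treatment. Chemicals carried a surfactant in a non-phytotoxic solvent and went onto loam–sand soil preemergence or onto one- to two-leaf seedlings postemergence.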
# [2] = system: blackgrass (Alopecurus myosuroides); assay: Test A postemergence, visual injury rating; conditions: 0 is no effect, 100 is complete control
# Method in brief: as §1
# [3] = system: galium (catchweed bedstraw, Galium aparine); assay: Test A postemergence, visual injury rating; conditions: 0 is no effect, 100 is complete control
# Method in brief: as §1
# [4] = system: blackgrass (Alopecurus myosuroides); assay: Test C preemergence, plant response rating; conditions: Preemergence
# Source text: (§2) Seeds of plant species selected from blackgrass (Alopecurus myosuroides), ryegrass, Italian (Italian ryegrass, Lolium multiflorum), wheat (winter wheat, Triticum aestivum), galium (catchweed bedstraw, Galium aparine), corn (Zea mays), crabgrass, large (large crabgrass, Digitaria sanguinalis), foxtail, giant (giant foxtail, Setaria faberii), johnsongrass (Sorghum halepense), lambsquarters (Chenopodium album), morningglory (Ipomoea coccinea), nutsedge, yellow (yellow nutsedge, Cyperus esculentus), pigweed (Amaranthus retroflexus), ragweed (common ragweed, Ambrosia elatior), soybean (Glycine max), barnyardgrass (Echinochloa crus-galli), oilseed rape (Brassica napus), pigweed, palmer (palmer pigweed, Amaranthus palmeri), waterhemp (common waterhemp, Amaranthus rudis), velvetleaf (Abutilon theophrasti), kochia (Kochia scoparia), surinam grass (Brachiaria decumbens), nightshade (eastern black nightshade, Solanum ptycanthum), wild poinsettia (Euphorbia heterophylla), windgrass (Apera spica-venti), and oat, wild (wild oat Avena fatua), were planted into a blend of loam soil and sand or a silt loam soil and treated preemergence with test chemicals formulated in a non-phytotoxic solvent mixture which included a surfactant.
# (§3) At the same time, plants selected from these crop and weed species and also chickweed (common chickweed, Stellaria media), buckwheat, wild (wild buckwheat, Polygonum convolvulus), wild mustard (Sinapis arvensis), field poppy (Papaver rhoeas), field violet (Viola arvensis), geranium, cutleaf (cutleaf geranium, Geranium dissectum), Canada thistle (Cirsium arvense), and speedwell (bird's-eye speedwell, Veronica persica), were planted in pots containing Sunshine Redi-Earth® planting medium comprising spaghnum peat moss, vermiculite, starter nutrients and dolomitic limestone and treated with postemergence applications of test chemicals formulated in the same manner. Plants ranged in height from 2 to 18 cm (1- to 4-leaf stage) for postemergence treatments. Treated plants and controls were maintained in a greenhouse for 13 to 15 d, after which time all species were compared to controls and visually evaluated. Plant response ratings, summarized in Table C, are based on a scale of 0 to 100 where 0 is no effect and 100 is complete control. A dash (-) response means no test result.
# [5] = system: corn (Zea mays); assay: Test C preemergence, plant response rating; conditions: Preemergence
# Source text: as §2, §3
# [6] = system: crabgrass, large (large crabgrass, Digitaria sanguinalis); assay: Test C preemergence, plant response rating; conditions: Preemergence
# Source text: as §2, §3
# [7] = system: foxtail, giant (giant foxtail, Setaria faberii); assay: Test C preemergence, plant response rating; conditions: Preemergence
# Source text: as §2, §3
# [8] = system: lambsquarters (Chenopodium album); assay: Test C preemergence, plant response rating; conditions: Preemergence
# Source text: as §2, §3
# [9] = system: morningglory (Ipomoea coccinea); assay: Test C preemergence, plant response rating; conditions: Preemergence
# Source text: as §2, §3
# [10] = system: nutsedge, yellow (yellow nutsedge, Cyperus esculentus); assay: Test C preemergence, plant response rating; conditions: Preemergence
# Source text: as §2, §3
# [11] = system: oilseed rape (Brassica napus); assay: Test C preemergence, plant response rating; conditions: Preemergence
# Source text: as §2, §3
# [12] = system: ragweed (common ragweed, Ambrosia elatior); assay: Test C preemergence, plant response rating; conditions: Preemergence
# Source text: as §2, §3
# [13] = system: ryegrass, Italian (Italian ryegrass, Lolium multiflorum); assay: Test C preemergence, plant response rating; conditions: Preemergence
# Source text: as §2, §3
# [14] = system: soybean (Glycine max); assay: Test C preemergence, plant response rating; conditions: Preemergence
# Source text: as §2, §3
# [15] = system: velvetleaf (Abutilon theophrasti); assay: Test C preemergence, plant response rating; conditions: Preemergence
# Source text: as §2, §3
# [16] = system: waterhemp (common waterhemp, Amaranthus rudis); assay: Test C preemergence, plant response rating; conditions: Preemergence
# Source text: as §2, §3
# [17] = system: wheat (winter wheat, Triticum aestivum); assay: Test C preemergence, plant response rating; conditions: Preemergence
# Source text: as §2, §3
smiles,measurement,setting,value
N#Cc1cccc(Oc2ncc(Cl)cn2)c1C(=O)OCCC(F)(F)F [Compound 30],Barnyardgrass plant response rating (0 to 100 scale),[1]; 125 g ai/ha,0
same,Barnyardgrass plant response rating (0 to 100 scale),[1]; 500 g ai/ha,20
same,Blackgrass plant response rating (0 to 100 scale),[2]; 125 g ai/ha,10
same,Blackgrass plant response rating (0 to 100 scale),[2]; 500 g ai/ha,30
same,Galium plant response rating (0 to 100 scale),[3]; 125 g ai/ha,60
same,Galium plant response rating (0 to 100 scale),[3]; 500 g ai/ha,100
same,"Plant response rating, Blackgrass","[4]; 62 g ai/ha, scale of 0 to 100",0
same,"Plant response rating, Blackgrass","[4]; 125 g ai/ha, scale of 0 to 100",0
same,"Plant response rating, Blackgrass","[4]; 16 g ai/ha, scale 0 to 100",0
same,"Plant response rating, Blackgrass","[4]; 31 g ai/ha, scale 0 to 100",0
same,"Plant response rating, Corn","[5]; 62 g ai/ha, scale of 0 to 100",0
same,"Plant response rating, Corn","[5]; 125 g ai/ha, scale of 0 to 100",5
same,"Plant response rating, Corn","[5]; 16 g ai/ha, scale 0 to 100",0
same,"Plant response rating, Corn","[5]; 31 g ai/ha, scale 0 to 100",0
same,"Plant response rating, Crabgrass, Large","[6]; 62 g ai/ha, scale of 0 to 100",80
same,"Plant response rating, Crabgrass, Large","[6]; 125 g ai/ha, scale of 0 to 100",98
same,"Plant response rating, Crabgrass, Large","[6]; 16 g ai/ha, scale 0 to 100",0
same,"Plant response rating, Crabgrass, Large","[6]; 31 g ai/ha, scale 0 to 100",35
same,"Plant response rating, Foxtail, Giant","[7]; 62 g ai/ha, scale of 0 to 100",65
same,"Plant response rating, Foxtail, Giant","[7]; 125 g ai/ha, scale of 0 to 100",75
same,"Plant response rating, Foxtail, Giant","[7]; 16 g ai/ha, scale 0 to 100",5
same,"Plant response rating, Foxtail, Giant","[7]; 31 g ai/ha, scale 0 to 100",30
same,"Plant response rating, Lambsquarters","[8]; 125 g ai/ha, scale of 0 to 100",55
same,"Plant response rating, Lambsquarters","[8]; 16 g ai/ha, scale 0 to 100",10
same,"Plant response rating, Lambsquarters","[8]; 31 g ai/ha, scale 0 to 100",25
same,"Plant response rating, Lambsquarters","[8]; 62 g ai/ha, scale 0 to 100",30
same,"Plant response rating, Morningglory","[9]; 125 g ai/ha, scale of 0 to 100",35
same,"Plant response rating, Morningglory","[9]; 16 g ai/ha, scale 0 to 100",0
same,"Plant response rating, Morningglory","[9]; 31 g ai/ha, scale 0 to 100",10
same,"Plant response rating, Morningglory","[9]; 62 g ai/ha, scale 0 to 100",10
same,"Plant response rating, Nutsedge, Yellow","[10]; 125 g ai/ha, scale of 0 to 100",5
same,"Plant response rating, Nutsedge, Yellow","[10]; 16 g ai/ha, scale 0 to 100",0
same,"Plant response rating, Nutsedge, Yellow","[10]; 31 g ai/ha, scale 0 to 100",0
same,"Plant response rating, Nutsedge, Yellow","[10]; 62 g ai/ha, scale 0 to 100",0
same,"Plant response rating, Oilseed Rape","[11]; 125 g ai/ha, scale of 0 to 100",100
same,"Plant response rating, Oilseed Rape","[11]; 16 g ai/ha, scale 0 to 100",10
same,"Plant response rating, Oilseed Rape","[11]; 31 g ai/ha, scale 0 to 100",55
same,"Plant response rating, Oilseed Rape","[11]; 62 g ai/ha, scale 0 to 100",100
same,"Plant response rating, Ragweed","[12]; 125 g ai/ha, scale of 0 to 100",0
same,"Plant response rating, Ragweed","[12]; 16 g ai/ha, scale 0 to 100",0
same,"Plant response rating, Ragweed","[12]; 31 g ai/ha, scale 0 to 100",0
same,"Plant response rating, Ragweed","[12]; 62 g ai/ha, scale 0 to 100",0
same,"Plant response rating, Ryegrass, Italian","[13]; 125 g ai/ha, scale of 0 to 100",5
same,"Plant response rating, Ryegrass, Italian","[13]; 16 g ai/ha, scale 0 to 100",0
same,"Plant response rating, Ryegrass, Italian","[13]; 31 g ai/ha, scale 0 to 100",0
same,"Plant response rating, Ryegrass, Italian","[13]; 62 g ai/ha, scale 0 to 100",0
same,"Plant response rating, Soybean","[14]; 125 g ai/ha, scale of 0 to 100",60
same,"Plant response rating, Soybean","[14]; 16 g ai/ha, scale 0 to 100",0
same,"Plant response rating, Soybean","[14]; 62 g ai/ha, scale 0 to 100",10
same,"Plant response rating, Velvetleaf","[15]; 125 g ai/ha, scale of 0 to 100",40
same,"Plant response rating, Velvetleaf","[15]; 16 g ai/ha, scale 0 to 100",0
same,"Plant response rating, Velvetleaf","[15]; 31 g ai/ha, scale 0 to 100",0
same,"Plant response rating, Velvetleaf","[15]; 62 g ai/ha, scale 0 to 100",10
same,"Plant response rating, Waterhemp","[16]; 125 g ai/ha, scale of 0 to 100",100
same,"Plant response rating, Waterhemp","[16]; 16 g ai/ha, scale 0 to 100",85
same,"Plant response rating, Waterhemp","[16]; 31 g ai/ha, scale 0 to 100",100
same,"Plant response rating, Waterhemp","[16]; 62 g ai/ha, scale 0 to 100",100
same,"Plant response rating, Wheat","[17]; 125 g ai/ha, scale of 0 to 100",10
same,"Plant response rating, Wheat","[17]; 16 g ai/ha, scale 0 to 100",0
same,"Plant response rating, Wheat","[17]; 31 g ai/ha, scale 0 to 100",0
same,"Plant response rating, Wheat","[17]; 62 g ai/ha, scale 0 to 100",0
